The results in this text go back to patent US20110136762A1, “FUNGICIDAL PYRIDAZINES” (E.I. Du Pont de Nemours and Company, priority 2008, published 2011).

Holding throughout (assay type): in vivo
One test relates to Alternaria solani. Description: Test E: tomato early blight, preventive spray on tomato seedlings, visual disease rating. Particulars: 100 = 100% disease control, 0 = no disease control relative to controls; for pest or weed control at 200 ppm / pest or weed control at 40 ppm: Alternaria solani; for Test E rating (disease control, tomato early blight) / pest or weed control at 40 ppm: 40 ppm (marked *). An excerpt: General protocol for preparing test suspensions for Tests A-F: […] The resulting test suspensions were then used in Tests A-F. The test suspensions were sprayed to the point of run-off on the test plants. All results are for 200 ppm (equivalent to a rate of 500 g/ha) except where followed by “*” which indicates 40 ppm. The test suspension was sprayed to the point of run-off on tomato seedlings. […] A dash (-) indicates no test results. All results are for 200 ppm except where followed by “*”, which indicates 40 ppm.

For a further test, the system named is Septoria tritici. Description: Test C: wheat leaf blotch, preventive spray on wheat seedlings, visual disease rating. Particulars: 100 = 100% disease control, 0 = no disease control relative to controls; for pest or weed control at 200 ppm / pest or weed control at 40 ppm: Zymoseptoria tritici, 504 h; for Test C rating (disease control, wheat leaf blotch) / pest or weed control at 40 ppm: 40 ppm (marked *). From the text:
General protocol for preparing test suspensions for Tests A-F: […] The resulting test suspensions were then used in Tests A-F. The test suspensions were sprayed to the point of run-off on the test plants. All results are for 200 ppm (equivalent to a rate of 500 g/ha) except where followed by “*” which indicates 40 ppm. The test suspension was sprayed to the point of run-off on wheat seedlings. The following day the seedlings were inoculated with a spore suspension of Septoria tritici (the causal agent of wheat leaf blotch) and incubated in saturated atmosphere at 20° C. for 48 h, and moved to a growth chamber at 20° C. for 19 additional days, after which time visual disease ratings were made. […] A dash (-) indicates no test results. All results are for 200 ppm except where followed by “*”, which indicates 40 ppm.

The next test deals with Erysiphe graminis. Description: Test A: wheat powdery mildew, preventive spray on wheat seedlings, visual disease rating. Particulars: 100 = 100% disease control, 0 = no disease control relative to controls; for pest or weed control at 200 ppm / pest or weed control at 40 ppm: Blumeria graminis, 192 h; for Test A rating (disease control, wheat powdery mildew) / pest or weed control at 40 ppm: 40 ppm (marked *). From the text: General protocol for preparing test suspensions for Tests A-F: […] The resulting test suspensions were then used in Tests A-F. The test suspensions were sprayed to the point of run-off on the test plants. All results are for 200 ppm (equivalent to a rate of 500 g/ha) except where followed by “*” which indicates 40 ppm. The test suspension was sprayed to the point of run-off on wheat seedlings. The following day the seedlings were inoculated with a spore dust of Erysiphe graminis, (the causal agent of wheat powdery mildew) and incubated in a growth chamber at 20° C. for 8 days, after which time visual disease ratings were made. […] A dash (-) indicates no test results. All results are for 200 ppm except where followed by “*”, which indicates 40 ppm.

The next test deals with Septoria nodorum. Description: Test D: wheat glume blotch, preventive spray on wheat seedlings, visual disease rating. The note with it: 100 = 100% disease control, 0 = no disease control relative to controls; for pest or weed control at 200 ppm / pest or weed control at 40 ppm: Parastagonospora nodorum; for Test D rating (disease control, wheat glume blotch) / pest or weed control at 40 ppm: 40 ppm (marked *). An excerpt:
General protocol for preparing test suspensions for Tests A-F: […] The resulting test suspensions were then used in Tests A-F. The test suspensions were sprayed to the point of run-off on the test plants. All results are for 200 ppm (equivalent to a rate of 500 g/ha) except where followed by “*” which indicates 40 ppm. The test suspension was sprayed to the point of run-off on wheat seedlings. The following day the seedlings were inoculated with a spore suspension of Septoria nodorum (the causal agent of wheat glume blotch) and incubated in a saturated atmosphere at 20° C. for 48 h, and then moved to a growth chamber at 20° C. for 7 days, after which time visual disease ratings were made. […] A dash (-) indicates no test results. All results are for 200 ppm except where followed by “*”, which indicates 40 ppm.

A further test has as its system Botrytis cinerea. Description: Test F: tomato Botrytis, preventive spray on tomato seedlings, visual disease rating. The note with it: 100 = 100% disease control, 0 = no disease control relative to controls; for pest or weed control at 200 ppm / pest or weed control at 40 ppm: Botrytis cinerea; for Test F rating (disease control, tomato Botrytis) / pest or weed control at 40 ppm: 40 ppm (marked *). From the text: General protocol for preparing test suspensions for Tests A-F: […] The resulting test suspensions were then used in Tests A-F. The test suspensions were sprayed to the point of run-off on the test plants. All results are for 200 ppm (equivalent to a rate of 500 g/ha) except where followed by “*” which indicates 40 ppm. The test suspension was sprayed to the point of run-off on tomato seedlings. The following day the seedlings were inoculated with a spore suspension of Botrytis cinerea (the causal agent of tomato Botrytis) and incubated in saturated atmosphere at 20° C. for 48 h, and then moved to a growth chamber at 24° C. for 3 days, after which time visual disease ratings were made. […] A dash (-) indicates no test results. All results are for 200 ppm except where followed by “*”, which indicates 40 ppm.

Test [1] has as its system Puccinia recondita f. sp. tritici. Description: Test B: wheat leaf rust, preventive spray on wheat seedlings, visual disease rating. The note with it: 100 = 100% disease control, 0 = no disease control relative to controls; for pest or weed control at 200 ppm / pest or weed control at 40 ppm: 192 h; for Test B rating (disease control, wheat leaf rust) / pest or weed control at 40 ppm: 40 ppm (marked *). From the text: General protocol for preparing test suspensions for Tests A-F: […] The resulting test suspensions were then used in Tests A-F. The test suspensions were sprayed to the point of run-off on the test plants. All results are for 200 ppm (equivalent to a rate of 500 g/ha) except where followed by “*” which indicates 40 ppm. The test suspension was sprayed to the point of run-off on wheat seedlings. The following day the seedlings were inoculated with a spore suspension of Puccinia recondita f. sp. tritici (the causal agent of wheat leaf rust) and incubated in a saturated atmosphere at 20° C. for 24 h, and then moved to a growth chamber at 20° C. for 7 days, after which time visual disease ratings were made. […] A dash (-) indicates no test results. All results are for 200 ppm except where followed by “*”, which indicates 40 ppm.

Marks after values point to notes of the source that are not given here.

For `COc1ccc(-c2c(C)nnc(-c3ccccc3)c2-c2cc(OC)cc(OC)c2)cc1` [Compound 7, 4-(3,5-dimethoxyphenyl)-5-(4-methoxyphenyl)-6-methyl-3-phenylpyridazine], the pest or weed control at 200 ppm in the test on Alternaria solani was 96%; with Septoria tritici, 100%; in the test with Erysiphe graminis, 95%; in the test with Septoria nodorum, 90%; with Botrytis cinerea it was 97%; in test [1], 100%.

`COc1cncc(-c2c(-c3ccccc3F)nnc(C)c2-c2c(F)cc(F)cc2F)c1` [Compound 46]: the “Test E rating (disease control, tomato early blight)” value (“Test E rating” below) in the test on Alternaria solani is recorded as 100* %. The “Test C rating (disease control, wheat leaf blotch)” value (shortened to “Test C rating”) with Septoria tritici is recorded as 99* %. In the test with Erysiphe graminis, the “Test A rating (disease control, wheat powdery mildew)” value (shortened to “Test A rating”) is 97* %. For the same molecule, the “Test D rating (disease control, wheat glume blotch)” value (from here on “Test D rating”) in the test with Septoria nodorum was 0* %. For the same molecule, the “Test F rating (disease control, tomato Botrytis)” value (shortened to “Test F rating”) in the test with Botrytis cinerea is on record as 100* %. The “Test B rating (disease control, wheat leaf rust)” value (“Test B rating” for short) in test [1] is given as 100* %.

As to `COc1cc(OC)cc(-c2c(-c3ccccc3F)nnc(C)c2-c2c(F)cc(F)cc2F)c1` [Compound 24, 4-(3,5-dimethoxyphenyl)-3-(2-fluorophenyl)-6-methyl-5-(2,4,6-trifluorophenyl)pyridazine], the pest or weed control at 200 ppm in the test with Alternaria solani was determined as 100%; with Septoria tritici it was 96%; with Erysiphe graminis, 100%; with Septoria nodorum, 100%; in the test with Botrytis cinerea, 94%; in test [1], 100%.

On to `COc1ccncc1-c1c(-c2ccccc2F)nnc(Cl)c1-c1c(F)cc(F)cc1F` [Compound 40], for which the “Test E rating” value in the test on Alternaria solani is reported as 93* %. In addition, the “Test C rating” value in the test on Septoria tritici was 100* %. In addition, the “Test A rating” value in the test with Erysiphe graminis is 73* %. Further, the “Test D rating” value in the test with Septoria nodorum is 60* %. Also, in the test on Botrytis cinerea, the “Test F rating” value is listed as 100* %. The “Test B rating” value in test [1] is listed as 100* %.

Regarding `COc1ccc(-c2c(C)nnc(-c3ccc(F)cc3F)c2-c2cc(OC)cc(OC)c2)cc1` [Compound 9, 3-(2,4-difluorophenyl)-4-(3,5-dimethoxyphenyl)-5-(4-methoxyphenyl)-6-methylpyridazine], the pest or weed control at 200 ppm in the test with Alternaria solani amounted to 81%; in the test with Septoria tritici, 100%; with Erysiphe graminis it was 84%; with Septoria nodorum, 60%; in the test with Botrytis cinerea, 98%; in test [1] it was 91%.

As for `Cc1nnc(-c2ccccc2F)c(-c2cncc(F)c2)c1-c1c(F)cc(F)cc1F` [Compound 41], in the test with Alternaria solani, the “Test E rating” value is 98* %. The “Test C rating” value in the test on Septoria tritici is listed as 100* %. Also, the “Test A rating” value in the test with Erysiphe graminis is given as 97* %. Besides, the “Test D rating” value with Septoria nodorum is 98* %. In the test with Botrytis cinerea, the “Test F rating” value is given as 100* %. Moreover, the “Test B rating” value in test [1] is 100* %.

On to `COc1cc(OC)cc(-c2c(-c3ccccc3F)nnc(Cl)c2-c2c(F)cc(F)cc2F)c1` [Compound 45, 3-chloro-5-(3,5-dimethoxyphenyl)-6-(2-fluorophenyl)-4-(2,4,6-trifluorophenyl)pyridazine], for which the pest or weed control at 40 ppm in the test with Alternaria solani is 100%; with Septoria tritici, 99%; in the test with Erysiphe graminis, 100%; in the test on Septoria nodorum it was 100%; with Botrytis cinerea, 100%; in test [1] it was 100%.

On to `Fc1cncc(-c2c(-c3ccccc3F)nnc(Cl)c2-c2c(F)cc(F)cc2F)c1` [Compound 39], for which, in the test on Alternaria solani, the “Test E rating” value is 100* %. Moreover, the “Test C rating” value in the test with Septoria tritici is reported as 100* %. Moreover, the “Test A rating” value in the test with Erysiphe graminis is 100* %. Moreover, the “Test D rating” value in the test on Septoria nodorum is 100* %. The “Test F rating” value with Botrytis cinerea is recorded as 100* %. The “Test B rating” value in test [1] is 100* %.

Take `COc1cc(OC)c(Cl)c(-c2c(-c3ccccc3F)nnc(C)c2-c2c(F)cc(F)cc2F)c1` [Compound 31, 4-(2-chloro-3,5-dimethoxyphenyl)-3-(2-fluorophenyl)-6-methyl-5-(2,4,6-trifluorophenyl)pyridazine]: the pest or weed control at 40 ppm came to 100% in the test with Alternaria solani; 99% in the test on Septoria tritici; 97% with Erysiphe graminis; 100% with Septoria nodorum; 100% in the test on Botrytis cinerea; 100% in test [1].

Turning to `COc1cc(OC)cc(-c2c(-c3ccccc3F)nnc(C)c2-c2ccc(F)cc2)c1` [Compound 2, 4-(3,5-dimethoxyphenyl)-3-(2-fluorophenyl)-5-(4-fluorophenyl)-6-methylpyridazine], the pest or weed control at 200 ppm turned out to be 99% in the test with Alternaria solani; 100% in the test on Septoria tritici; 97% in the test with Erysiphe graminis; 0% in the test with Septoria nodorum; 99% in the test on Botrytis cinerea; 99% in test [1].

`COc1cc(OC)cc(-c2c(-c3ccccc3)nnc(C)c2-c2ccc(F)cc2)c1` [Compound 1, 4-(3,5-dimethoxyphenyl)-5-(4-fluorophenyl)-6-methyl-3-phenylpyridazine]: the pest or weed control at 200 ppm in the test on Alternaria solani is 72%; in the test with Septoria tritici, 100%; in the test on Erysiphe graminis it was 85%; in the test on Septoria nodorum, 0%; in the test with Botrytis cinerea, 98%; in test [1] it was 99%.

For `COc1cc(OC)cc(-c2c(-c3ccccc3)nnc(C)c2-c2c(F)cc(F)cc2F)c1` [Compound 35, 4-(3,5-dimethoxyphenyl)-6-methyl-3-phenyl-5-(2,4,6-trifluorophenyl)pyridazine], the pest or weed control at 200 ppm was determined as 99% in the test with Alternaria solani, 95% in the test on Septoria nodorum and 99% with Botrytis cinerea. The pest or weed control at 40 ppm in the test on Septoria tritici was found to be 100%; with Erysiphe graminis it was 90%; in test [1], 100%.

What is called pest or weed control is how far the test organism was held down. A lower pest or weed control goes with a weak effect.
